Laboratory results as given in US7417156B2, “Orally active, antimalarial, anticancer, artemisinin-derived trioxane dimers” (Johns Hopkins University, priority 2002, dated 2008).

Columns and labels:
[1] = tested on: OVCAR-3; experiment: NCI 60 cell line panel screen (SRB); assay type: cell-based, human
[2] = tested on: NCI/ADR-RES; experiment: NCI 60 cell line panel screen (SRB); assay type: cell-based, human
[3] = tested on: HCT-116; experiment: NCI 60 cell line panel screen (SRB); assay type: cell-based, human
[4] = tested on: 786-0; experiment: NCI 60 cell line panel screen (SRB); assay type: cell-based, human
[5] = tested on: EKVX; experiment: NCI 60 cell line panel screen (SRB); assay type: cell-based, human
[6] = tested on: HL-60(TB); experiment: NCI 60 cell line panel screen (SRB); assay type: cell-based, human
[7] = tested on: A549/ATCC; experiment: NCI 60 cell line panel screen (SRB); assay type: cell-based, human
[8] = tested on: NCI-H322M; assay type: cell-based
[9] = tested on: MCF7; experiment: NCI 60 cell line panel screen (SRB); assay type: cell-based, human
[10] = tested on: HT29; experiment: NCI 60 cell line panel screen (SRB); assay type: cell-based, human
[11] = tested on: SF-539; experiment: NCI 60 cell line panel screen (SRB); assay type: cell-based, human
[12] = tested on: UO-31; experiment: NCI 60 cell line panel screen (SRB); assay type: cell-based, human
[13] = tested on: HCT-15; experiment: NCI 60 cell line panel screen (SRB); assay type: cell-based, human
[14] = tested on: MALME-3M; experiment: NCI 60 cell line panel screen (SRB); assay type: cell-based, human
[15] = tested on: COLO 205; experiment: NCI 60 cell line panel screen (SRB); assay type: cell-based, human
[16] = tested on: SNB-19; experiment: NCI 60 cell line panel screen (SRB); assay type: cell-based, human
[17] = tested on: IGROVI; experiment: NCI 60 cell line panel screen (SRB); assay type: cell-based, human
[18] = tested on: NCI-H460; experiment: NCI 60 cell line panel screen (SRB); assay type: cell-based, human
[19] = tested on: NCI-H522; experiment: NCI 60 cell line panel screen (SRB); assay type: cell-based, human
[20] = tested on: 60 cell line panel; assay type: cell-based
[21] = tested on: T-47D; experiment: NCI 60 cell line panel screen (SRB); assay type: cell-based, human
[22] = tested on: chloroquine-sensitive P. falciparum (NF54); experiment: Antimalarial activity in vitro, [3H]hypoxanthine incorporation; assay type: cell-based; conditions: Table I; NF54 strain; read-out: IC50
[23] = tested on: TK-10; experiment: NCI 60 cell line panel screen (SRB); assay type: cell-based, human
[24] = mean value over the 60 cell line panel

CC1CCC2C(C)C(CC(COC(=O)CCC(=O)O)CC3OC4OC5(C)CCC6C(C)CCC(C3C)C46OO5)OC3OC4(C)CCC1C32OO4 (stereo not shown) [Compound 8a, bis-trioxane primary succinate monoester]
Log10LC50 ([1]; OVCAR-3 (Ovarian Cancer), LC50: PG=−50): >−4.30 log10M | Log10TGI50 ([1]; OVCAR-3 (Ovarian Cancer), TGI: PG=0): −8.21 log10M | Log10GI50 ([1]; Ovarian Cancer, OVCAR-3): <−8.30 | Log10GI50 ([2]; Breast Cancer, NCI/ADR-RES): −5.64 | Log10LC50 ([2]; NCI/ADR-RES (Breast Cancer), LC50: PG=−50): >−4.30 log10M | Log10TGI50 ([2]; NCI/ADR-RES (Breast Cancer), TGI: PG=0): >−4.30 log10M | Log10GI50 ([3]; Colon Cancer, HCT-116): <−8.30 | Log10LC50 ([3]; HCT-116 (Colon Cancer), LC50: PG=−50): >−4.30 log10M | Log10TGI50 ([3]; HCT-116 (Colon Cancer), TGI: PG=0): >−4.30 log10M | Log10LC50 ([4]; 786-0 (Renal Cancer), LC50: PG=−50): >−4.30 log10M | Log10TGI50 ([4]; 786-0 (Renal Cancer), TGI: PG=0): >−4.30 log10M | Log10GI50 ([4]; Renal Cancer, 786-0): −6.45 | Log10LC50 ([5]; EKVX (Non-Small Cell Lung Cancer), LC50: PG=−50): >−4.30 log10M | Log10TGI50 ([5]; EKVX (Non-Small Cell Lung Cancer), TGI: PG=0): −5.47 log10M | Log10GI50 ([5]; Non-Small Cell Lung Cancer, EKVX): −6.90 | Log10LC50 ([6]; HL-60(TB) (Leukemia), LC50: PG=−50): >−4.30 log10M | Log10TGI50 ([6]; HL-60(TB) (Leukemia), TGI: PG=0): −7.61 log10M | Log10GI50 ([6]; Leukemia, HL-60(TB)): <−8.30 | Log10LC50 ([7]; A549/ATCC (Non-Small Cell Lung Cancer), LC50: PG=−50): >−4.30 log10M | Log10TGI50 ([7]; A549/ATCC (Non-Small Cell Lung Cancer), TGI: PG=0): >−4.30 log10M | Log10GI50 ([7]; Non-Small Cell Lung Cancer, A549/ATCC): −4.42 | Log10TGI50 ([8]; NCI-H322M (Non-Small Cell Lung Cancer), TGI: PG=0): >−4.30 log10M | Log10GI50 ([8]; Non-Small Cell Lung Cancer, NCI-H322M): −5.11 | Log10GI50 ([9]; Breast Cancer, MCF7): <−8.30 | Log10LC50 ([9]; MCF7 (Breast Cancer), LC50: PG=−50): >−4.30 log10M | Log10TGI50 ([9]; MCF7 (Breast Cancer), TGI: PG=0): >−4.30 log10M | Log10GI50 ([10]; Colon Cancer, HT29): <−8.30 | Log10LC50 ([10]; HT29 (Colon Cancer), LC50: PG=−50): >−4.30 log10M | Log10TGI50 ([10]; HT29 (Colon Cancer), TGI: PG=0): >−4.30 log10M | Log10GI50 ([11]; CNS Cancer, SF-539): −5.27 | Log10LC50 ([11]; SF-539 (CNS Cancer), LC50: PG=−50): >−4.30 log10M | Log10TGI50 ([11]; SF-539 (CNS Cancer), TGI: PG=0): >−4.30 log10M | Log10GI50 ([12]; Renal Cancer, UO-31): −5.46 | Log10LC50 ([12]; UO-31 (Renal Cancer), LC50: PG=−50): >−4.30 log10M | Log10TGI50 ([12]; UO-31 (Renal Cancer), TGI: PG=0): >−4.30 log10M | Log10GI50 ([13]; Colon Cancer, HCT-15): <−8.30 | Log10LC50 ([13]; HCT-15 (Colon Cancer), LC50: PG=−50): >−4.30 log10M | Log10TGI50 ([13]; HCT-15 (Colon Cancer), TGI: PG=0): −5.61 log10M | Log10LC50 ([14]; MALME-3M (Melanoma), LC50: PG=−50): >−4.30 log10M | Log10TGI50 ([14]; MALME-3M (Melanoma), TGI: PG=0): −6.82 log10M | Log10GI50 ([14]; Melanoma, MALME-3M): <−8.30 | Log10LC50 ([15]; COLO 205 (Colon Cancer), LC50: PG=−50): 4.78 log10M | Log10TGI50 ([15]; COLO 205 (Colon Cancer), TGI: PG=0): −6.29 log10M | Log10GI50 ([15]; Colon Cancer, COLO 205): <−8.30 | Log10GI50 ([16]; CNS Cancer, SNB-19): −5.62 | Log10LC50 ([16]; SNB-19 (CNS Cancer), LC50: PG=−50): >−4.30 log10M | Log10TGI50 ([16]; SNB-19 (CNS Cancer), TGI: PG=0): >−4.30 log10M | Log10LC50 ([17]; IGROVI (Ovarian Cancer), LC50: PG=−50): >−4.30 log10M | Log10TGI50 ([17]; IGROVI (Ovarian Cancer), TGI: PG=0): >−4.30 log10M | Log10GI50 ([17]; Ovarian Cancer, IGROVI): −5.07 | Log10LC50 ([18]; NCI-H460 (Non-Small Cell Lung Cancer), LC50: PG=−50): >−4.30 log10M | Log10TGI50 ([18]; NCI-H460 (Non-Small Cell Lung Cancer), TGI: PG=0): >−4.30 log10M | Log10GI50 ([18]; Non-Small Cell Lung Cancer, NCI-H460): <−8.30 | Log10TGI50 ([19]; NCI-H522 (Non-Small Cell Lung Cancer), TGI: PG=0): >−4.30 log10M | Log10LC50 ([19]; NCI-H-522 (Non-Small Cell Lung Cancer), LC50: PG=−50): >−4.30 log10M | Log10GI50 ([19]; Non-Small Cell Lung Cancer, NCI-H522): −6.16 | Log10GI50 Delta [20]: 1.29 | Log10GI50 Range [20]: 4.00 | Log10LC50 Delta ([20]; 60 cell line panel): 0.46 | Log10LC50 Range ([20]; 60 cell line panel): 0.48 | Log10TGI50 Delta ([20]; 60 cell line panel): 3.26 | Log10TGI50 Range ([20]; 60 cell line panel): 4.00 | growth inhibition in words ([20]; colon cancer KM12, ovarian cancer OVCAR 3, breast cancer MDA-MB-435): selectively and strong inhibitory | Log10GI50 MG MID ([20]; mean over panel): −7.01 | Log10LC50 MG MID [20, 24]: −4.32 log10M | Log10TGI50 MG MID [20, 24]: −5.04 log10M | Log10GI50 ([21]; Breast Cancer, T-47D): <−8.30 | Log10LC50 ([21]; T-47D (Breast Cancer), LC50: PG=−50): >−4.30 log10M | Log10TGI50 ([21]; T-47D (Breast Cancer), TGI: PG=0): −4.77 log10M | IC50 [22]: 2 nM | Log10GI50 ([23]; Renal Cancer, TK-10): −6.92 | Log10LC50 ([23]; TK-10 (Renal Cancer), LC50: PG=−50): >−4.30 log10M | Log10TGI50 ([23]; TK-10 (Renal Cancer), TGI: PG=0): −4.52 log10M
